Source: publication PMC8667885, “2-Aminobenzoxazole-appended coumarins as potent and selective inhibitors of tumour-associated carbonic anhydrases” (Journal of Enzyme Inhibition and Medicinal Chemistry, 2021)

tested on: SW1573 (non-small cell lung); test: antiproliferative assay (NCI protocol), SW1573; format: cell-based, human; details: Homo sapiens, SW1573; antiproliferative activity
Procedure: (§1) The antiproliferative assays were conducted following the protocol of the US National Cancer Institute (NCI), with minor modifications.
(§2) The coumarin-benzoxazole hybrids were also tested as antiproliferative agents against a panel of six human solid tumour cell lines (Table 2): A549 (non-small cell lung), HBL-100 (breast), HeLa (cervix), SW1573 (non-small cell lung) as examples of drug-sensitive lines, and T-47D (breast) and WiDr (colon) as multidrug-resistant lines. A non-tumour cell line (BJ-hTert, human fibroblasts) was also used for analysing the selectivity. Chemotherapeutic agents 5-fluorouracyl (5-FU) and cisplatin (CDDP) were included in the study as drug references.

Structure (SMILES) | GI50 [µM]
O=c1[nH]cc(F)c(=O)[nH]1 [5-Fluorouracil, reference compound] | 3.3 ± 1.2
Cc1cc(=O)oc2cc(OCCCNc3nc4ccccc4o3)ccc12 [Compound 8a] | 29 ± 4
Cc1cc(=O)oc2cc(OCCCCCNc3nc4ccccc4o3)ccc12 [Compound 8b] | 33 ± 4

molecular target: human CA I (Homo sapiens, UniProt P00915); test: stopped-flow CO2 hydrase assay, CA I; details: not given
Sequence (P00915 whole entry): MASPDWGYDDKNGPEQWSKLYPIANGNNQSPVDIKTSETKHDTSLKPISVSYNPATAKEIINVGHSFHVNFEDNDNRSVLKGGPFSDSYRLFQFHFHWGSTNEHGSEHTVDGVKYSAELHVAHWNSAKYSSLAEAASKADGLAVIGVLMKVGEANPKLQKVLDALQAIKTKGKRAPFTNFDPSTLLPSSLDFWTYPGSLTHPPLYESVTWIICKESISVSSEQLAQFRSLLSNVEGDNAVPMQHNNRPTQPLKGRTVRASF

Ki [µM] | Structure (SMILES)
> 10 | Cc1cc(=O)oc2cc(OCCCNc3nc4ccccc4o3)ccc12 [Compound 8a]
> 10 | Cc1cc(=O)oc2cc(OCCCCCNc3nc4ccccc4o3)ccc12 [Compound 8b]

tested on: BJ-hTert, human fibroblasts; test: antiproliferative assay (NCI protocol), non-tumour BJ-hTert; format: cell-based; details: BJ-hTert
Procedure: as §1, §2

Structure (SMILES) | activity against the non-tumour cell line (in words)
Cc1cc(=O)oc2cc(OCCCNc3nc4ccccc4o3)ccc12 [Compound 8a] | weak activity

same assay, conditions: Fibroblast; non-tumour cell line, human fibroblasts

Structure (SMILES) | GI50 [µM]
O=c1[nH]cc(F)c(=O)[nH]1 [5-Fluorouracil, reference compound] | 5.5 ± 0.5
Cc1cc(=O)oc2cc(OCCCNc3nc4ccccc4o3)ccc12 [Compound 8a] | > 50
Cc1cc(=O)oc2cc(OCCCCCNc3nc4ccccc4o3)ccc12 [Compound 8b] | > 100

tested on: A549 (non-small cell lung); test: antiproliferative assay (NCI protocol), A549; format: cell-based, human; details: Homo sapiens, A549; antiproliferative activity
Procedure: as §1, §2

Structure (SMILES) | GI50 [µM]
O=c1[nH]cc(F)c(=O)[nH]1 [5-Fluorouracil, reference compound] | 2.2 ± 0.3
Cc1cc(=O)oc2cc(OCCCNc3nc4ccccc4o3)ccc12 [Compound 8a] | 32 ± 1
Cc1cc(=O)oc2cc(OCCCCCNc3nc4ccccc4o3)ccc12 [Compound 8b] | 15 ± 6

molecular target: human CA II (Homo sapiens, UniProt P00918); test: stopped-flow CO2 hydrase assay, CA II; details: not given

Ki [µM] | Structure (SMILES)
> 10 | Cc1cc(=O)oc2cc(OCCCNc3nc4ccccc4o3)ccc12 [Compound 8a]
> 10 | Cc1cc(=O)oc2cc(OCCCCCNc3nc4ccccc4o3)ccc12 [Compound 8b]

molecular target: human CA XII (Homo sapiens, UniProt O43570); test: stopped-flow CO2 hydrase assay, CA XII; details: not given
Sequence (O43570 25-354): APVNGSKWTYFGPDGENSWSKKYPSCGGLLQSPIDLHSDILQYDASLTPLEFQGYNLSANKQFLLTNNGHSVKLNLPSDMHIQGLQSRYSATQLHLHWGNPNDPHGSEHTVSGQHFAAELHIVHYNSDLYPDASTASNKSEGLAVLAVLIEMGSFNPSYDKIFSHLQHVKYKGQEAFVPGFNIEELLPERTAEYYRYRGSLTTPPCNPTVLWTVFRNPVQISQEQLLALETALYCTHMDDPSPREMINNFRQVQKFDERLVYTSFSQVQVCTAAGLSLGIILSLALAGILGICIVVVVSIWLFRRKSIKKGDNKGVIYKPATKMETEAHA

Ki [µM] | Structure (SMILES)
0.0844 | Cc1cc(=O)oc2cc(OCCCNc3nc4ccccc4o3)ccc12 [Compound 8a]
0.0845 | Cc1cc(=O)oc2cc(OCCCCCNc3nc4ccccc4o3)ccc12 [Compound 8b]

same assay, conditions: ratio of Ki CA I / CA XII

Selectivity ratio I/XII | Structure (SMILES)
>118.5 | Cc1cc(=O)oc2cc(OCCCNc3nc4ccccc4o3)ccc12 [Compound 8a]
>118.3 | Cc1cc(=O)oc2cc(OCCCCCNc3nc4ccccc4o3)ccc12 [Compound 8b]

same assay, conditions: ratio of Ki CA II / CA XII

Selectivity ratio II/XII | Structure (SMILES)
>118.5 | Cc1cc(=O)oc2cc(OCCCNc3nc4ccccc4o3)ccc12 [Compound 8a]
>118.3 | Cc1cc(=O)oc2cc(OCCCCCNc3nc4ccccc4o3)ccc12 [Compound 8b]

molecular target: human CA IX (Homo sapiens, UniProt Q16790); test: stopped-flow CO2 hydrase assay, CA IX; details: not given

Ki [µM] | Structure (SMILES)
0.0742 | Cc1cc(=O)oc2cc(OCCCNc3nc4ccccc4o3)ccc12 [Compound 8a]
0.0707 | Cc1cc(=O)oc2cc(OCCCCCNc3nc4ccccc4o3)ccc12 [Compound 8b]

same assay, conditions: ratio of Ki CA I / CA IX

Selectivity ratio I/IX | Structure (SMILES)
>134.8 | Cc1cc(=O)oc2cc(OCCCNc3nc4ccccc4o3)ccc12 [Compound 8a]
>141.4 | Cc1cc(=O)oc2cc(OCCCCCNc3nc4ccccc4o3)ccc12 [Compound 8b]

same assay, conditions: ratio of Ki CA II / CA IX

Selectivity ratio II/IX | Structure (SMILES)
>134.8 | Cc1cc(=O)oc2cc(OCCCNc3nc4ccccc4o3)ccc12 [Compound 8a]
>141.4 | Cc1cc(=O)oc2cc(OCCCCCNc3nc4ccccc4o3)ccc12 [Compound 8b]

molecular target: human CA IV (Homo sapiens, UniProt P22748); test: stopped-flow CO2 hydrase assay, CA IV; details: not given
Sequence (P22748 19-312): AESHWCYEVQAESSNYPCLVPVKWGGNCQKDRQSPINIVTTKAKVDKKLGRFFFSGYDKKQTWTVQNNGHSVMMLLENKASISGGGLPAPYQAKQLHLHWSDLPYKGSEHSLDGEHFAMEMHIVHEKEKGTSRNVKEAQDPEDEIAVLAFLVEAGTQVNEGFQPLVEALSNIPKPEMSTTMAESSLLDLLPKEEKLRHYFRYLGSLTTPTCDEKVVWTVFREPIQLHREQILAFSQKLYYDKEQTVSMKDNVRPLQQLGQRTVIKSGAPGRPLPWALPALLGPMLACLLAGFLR

Ki [µM] | Structure (SMILES)
0.839 | Cc1cc(=O)oc2cc(OCCCNc3nc4ccccc4o3)ccc12 [Compound 8a]
0.95 | Cc1cc(=O)oc2cc(OCCCCCNc3nc4ccccc4o3)ccc12 [Compound 8b]

tested on: T-47D (breast); test: antiproliferative assay (NCI protocol), T-47D; format: cell-based, human; details: Homo sapiens, T47D; antiproliferative activity, multidrug-resistant line
Procedure: as §1, §2

Structure (SMILES) | GI50 [µM]
O=c1[nH]cc(F)c(=O)[nH]1 [5-Fluorouracil, reference compound] | 43 ± 16
Cc1cc(=O)oc2cc(OCCCNc3nc4ccccc4o3)ccc12 [Compound 8a] | 33 ± 3
Cc1cc(=O)oc2cc(OCCCCCNc3nc4ccccc4o3)ccc12 [Compound 8b] | 38 ± 10

tested on: WiDr (colon); test: antiproliferative assay (NCI protocol), WiDr; format: cell-based, human; details: Homo sapiens, WiDr; antiproliferative activity, multidrug-resistant line
Procedure: as §1, §2

Structure (SMILES) | GI50 [µM]
O=c1[nH]cc(F)c(=O)[nH]1 [5-Fluorouracil, reference compound] | 49 ± 7
Cc1cc(=O)oc2cc(OCCCNc3nc4ccccc4o3)ccc12 [Compound 8a] | 37 ± 4
Cc1cc(=O)oc2cc(OCCCCCNc3nc4ccccc4o3)ccc12 [Compound 8b] | 33 ± 1

molecular target: human CA VII (Homo sapiens, UniProt P43166); test: stopped-flow CO2 hydrase assay, CA VII; details: not given
Sequence (P43166 whole entry): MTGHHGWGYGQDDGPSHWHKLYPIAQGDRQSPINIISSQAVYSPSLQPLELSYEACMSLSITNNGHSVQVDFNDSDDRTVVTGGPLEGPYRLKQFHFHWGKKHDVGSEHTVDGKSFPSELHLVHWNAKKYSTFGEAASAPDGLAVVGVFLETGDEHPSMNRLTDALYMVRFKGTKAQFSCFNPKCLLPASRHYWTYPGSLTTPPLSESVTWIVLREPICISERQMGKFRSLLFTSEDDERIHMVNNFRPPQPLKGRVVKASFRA

Ki [µM] | Structure (SMILES)
> 10 | Cc1cc(=O)oc2cc(OCCCNc3nc4ccccc4o3)ccc12 [Compound 8a]
> 10 | Cc1cc(=O)oc2cc(OCCCCCNc3nc4ccccc4o3)ccc12 [Compound 8b]

tested on: HeLa (cervix); test: antiproliferative assay (NCI protocol), HeLa; format: cell-based, human; details: Homo sapiens, HeLa; antiproliferative activity
Procedure: as §1, §2

Structure (SMILES) | GI50 [µM]
O=c1[nH]cc(F)c(=O)[nH]1 [5-Fluorouracil, reference compound] | 16 ± 5
Cc1cc(=O)oc2cc(OCCCNc3nc4ccccc4o3)ccc12 [Compound 8a] | 30 ± 2
Cc1cc(=O)oc2cc(OCCCCCNc3nc4ccccc4o3)ccc12 [Compound 8b] | 39 ± 1

tested on: HBL-100 (breast); test: antiproliferative assay (NCI protocol), HBL-100; format: cell-based, human; details: Homo sapiens, HBL-100; antiproliferative activity
Procedure: as §1, §2

Structure (SMILES) | GI50 [µM]
O=c1[nH]cc(F)c(=O)[nH]1 [5-Fluorouracil, reference compound] | 4.4 ± 0.7
Cc1cc(=O)oc2cc(OCCCNc3nc4ccccc4o3)ccc12 [Compound 8a] | 41 ± 5
Cc1cc(=O)oc2cc(OCCCCCNc3nc4ccccc4o3)ccc12 [Compound 8b] | 49 ± 6
